Literature values as cited in US20070281011A1, “Nanoparticulate posaconazole formulations” (Elan Pharma International Ltd., priority 2006, published 2007).

Key:
[1] = meal containing fat calories; regardless of formulation (tablet versus suspension)
[2] = test system: cytochrome P450 14a-demethylase (P45014DM); settings: particularly in Aspergillus

CC[C@@H]([C@H](C)O)n1ncn(-c2ccc(N3CCN(c4ccc(OC[C@@H]5CO[C@@](Cn6cncn6)(c6ccc(F)cc6F)C5)cc4)CC3)cc2)c1=O [Posaconazole]
aqueous solubility: < 1 µg/mL
increase of relative oral bioavailability [1]: approximately 400%
inhibition of sterol C14 demethylation compared to itraconazole [2]: significantly more potent inhibitor
